Among the data in patent US20210128566A1, “NOVEL FUNCTIONALIZED PURINE-2,6-DIONES AND THEIR USE IN MEDICINE” (THOMAS HELLEDAYS STIFTELSE FÖR MEDICINSK FORSKNING, priority 2017, published 2021) are IC50 values, retold here.

The experiment deals with recombinant human NUDT5 (Homo sapiens, UniProt Q9UKK9). Description: NUDT5 inhibitor activity by malachite green reporter assay. Format: biochemical. The settings on record: 6 nM NUDT5, 50 μM ADP-Ribose, 15 minutes at room temperature. Summed up: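 Coupled ADP-ribose hydrolysis in 10 mM Tris-acetate pH 8.0, 40 mM NaCl, 10 mM Mg acetate, 0.005% Tween-20, 1 mM DTT: 6 nM NUDT5, 50 μM ADP-Ribose, 10 U/ml alkaline phosphatase, 15 min at room temperature. Pi read by malachite green at 630 nm; compounds 100 μM–1.7 nM, 3-fold; IC50 by curve fit.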
For orientation: Reporter assays use an easily measured gene product as a stand-in for the process of interest.

Structures are written as SMILES.

Regarding `CCS(=O)(=O)c1nc2c(c(=O)n(C)c(=O)n2C)n1Cc1nnc(-c2ccc(Cl)c(Cl)c2)o1` [Example 23, 7-{[5-(3,4-dichlorophenyl)-1,3,4-oxadiazol-2-yl]methyl}-8-(ethanesulfonyl)-1,3-dimethyl-2,3,6,7-tetrahydro-1H-purine-2,6-dione], under “Table 3”, the IC50 (usually the concentration that inhibits the measured activity by half) is 24.4 nM.
As for `CCCNc1nc2c(c(=O)n(C)c(=O)n2C)n1Cc1nnc(-c2cccc(C)c2)o1` [Example 49, 1,3-dimethyl-7-{[5-(3-methylphenyl)-1,3,4-oxadiazol-2-yl]methyl}-8-(propylamino)-2,3,6,7-tetrahydro-1H-purine-2,6-dione], the IC50 (Table 3) came to 356 nM.
On to `Cn1c(=O)c2c(nc(-n3cccn3)n2Cc2nnc(-c3ccc(Cl)c(Cl)c3)o2)n(C)c1=O` [Example 67, 7-{[5-(3,4-dichlorophenyl)-1,3,4-oxadiazol-2-yl]methyl}-1,3-dimethyl-8-(1H-pyrazol-1-yl)-2,3,6,7-tetrahydro-1H-purine-2,6-dione], for which, for the setting “Table 4”, the IC50 came to 200 nM.
In the case of `COc1nc2c(c(=O)n(C)c(=O)n2C)n1Cc1nnc(-c2ccc(Cl)c(Cl)c2)o1` [Example 1, 7-{[5-(3,4-dichlorophenyl)-1,3,4-oxadiazol-2-yl]methyl}-8-methoxy-1,3-dimethyl-2,3,6,7-tetrahydro-1H-purine-2,6-dione], under “Table 3”, the IC50 was 29.1 nM.
For the compound `Cn1c(=O)c2c(nc(N3CCNCC3)n2Cc2nnc(-c3ccc(CS(C)(=O)=O)cc3)o2)n(C)c1=O` [Example 122, 7-({5-[4-(methanesulfonylmethyl)phenyl]-1,3,4-oxadiazol-2-yl}methyl)-1,3-dimethyl-8-(piperazin-1-yl)-2,3,6,7-tetrahydro-1H-purine-2,6-dione], where the note is “Table 4”, the IC50 was found to be 24400 nM.
With `Cc1cccc(-c2nnc(Cn3c(N4CCN(C5CCCCC5)CC4)nc4c3c(=O)n(C)c(=O)n4C)o2)c1` [Example 59, 8-(4-cyclohexylpiperazin-1-yl)-1,3-dimethyl-7-{[5-(3-methylphenyl)-1,3,4-oxadiazol-2-yl]methyl}-2,3,6,7-tetrahydro-1H-purine-2,6-dione], the IC50 (Table 3) was above 1000 nM.
Turning to `Cn1c(=O)c2c(nc(Cl)n2Cc2nnc(-c3ccc4cc[nH]c4c3)o2)n(C)c1=O` [Example 101, 8-chloro-7-{[5-(1H-indol-6-yl)-1,3,4-oxadiazol-2-yl]methyl}-1,3-dimethyl-2,3,6,7-tetrahydro-1H-purine-2,6-dione], the IC50 (Table 4) came to 358 nM.
Take `COc1ccc(-c2nnc(Cn3c(N4CCNCC4)nc4c3c(=O)n(C)c(=O)n4C)o2)cc1Cl` [Example 118, 7-{[5-(3-chloro-4-methoxyphenyl)-1,3,4-oxadiazol-2-yl]methyl}-1,3-dimethyl-8-(piperazin-1-yl)-2,3,6,7-tetrahydro-1H-purine-2,6-dione]: the IC50 (Table 4) was 17.4 nM.
The same measure, in the same setting: with `Cn1c(=O)c2c(nc(-n3ccnc3)n2Cc2nnc(-c3ccc(Cl)c(Cl)c3)o2)n(C)c1=O` [Example 66, 7-{[5-(3,4-dichlorophenyl)-1,3,4-oxadiazol-2-yl]methyl}-8-(1H-imidazol-1-yl)-1,3-dimethyl-2,3,6,7-tetrahydro-1H-purine-2,6-dione] the figure was 58.2 nM; with `COc1cc(-c2nnc(Cn3c(N4CC[C@@H](N(C)C)C4)nc4c3c(=O)n(C)c(=O)n4C)o2)ccc1C` [Example 139, 8-[(3R)-3-(dimethylamino)pyrrolidin-1-yl]-7-{[5-(3-methoxy-4-methylphenyl)-1,3,4-oxadiazol-2-yl]methyl}-1,3-dimethyl-2,3,6,7-tetrahydro-1H-purine-2,6-dione], 265 nM.
As for `Cc1cccc(-c2nnc(Cn3c(N(C)C)nc4c3c(=O)n(C)c(=O)n4C)o2)c1` [Example 48, 8-(dimethylamino)-1,3-dimethyl-7-{[5-(3-methylphenyl)-1,3,4-oxadiazol-2-yl]methyl}-2,3,6,7-tetrahydro-1H-purine-2,6-dione], the IC50 (Table 3) was determined as 69.4 nM.
Regarding `Cn1c(=O)c2c(nc(N3CCN(C(=O)OC(C)(C)C)CC3)n2Cc2nnc(-c3ccc(Cl)c(Cl)c3)o2)n(C)c1=O` [Example 14, tert-butyl 4-(7-{[5-(3,4-dichlorophenyl)-1,3,4-oxadiazol-2-yl]methyl}-1,3-dimethyl-2,6-dioxo-2,3,6,7-tetrahydro-1H-purin-8-yl)piperazine-1-carboxylate], the IC50 (Table 3) turned out to be 164 nM.
Consider `Cn1c(=O)c2c(nc(Cl)n2Cc2nnc(-c3ccc(C#N)cc3)o2)n(C)c1=O` [Example 93, 4-{5-[(8-chloro-1,3-dimethyl-2,6-dioxo-2,3,6,7-tetrahydro-1H-purin-7-yl)methyl]-1,3,4-oxadiazol-2-yl}benzonitrile], for which the IC50 (Table 4) came to 918 nM.
On to `CN(C)c1nc2c(c(=O)n(C)c(=O)n2C)n1Cc1nnc(-c2ccc(Cl)c(Cl)c2)o1` [Example 3, 7-{[5-(3,4-dichlorophenyl)-1,3,4-oxadiazol-2-yl]methyl}-8-(dimethylamino)-1,3-dimethyl-2,3,6,7-tetrahydro-1H-purine-2,6-dione], for which the IC50 (Table 3) amounted to 111 nM.
For `Cn1c(=O)c2c(nc(N3CCC(CN)CC3)n2Cc2nnc(-c3ccc(Cl)c(Cl)c3)o2)n(C)c1=O` [Example 38, 8-[4-(aminomethyl)piperidin-1-yl]-7-{[5-(3,4-dichlorophenyl)-1,3,4-oxadiazol-2-yl)methyl}-1,3-dimethyl-2,3,6,7-tetrahydro-1H-purine-2,6-dione], the IC50 (Table 3) came to 18.5 nM.
On the same count and under the same terms, then `Cn1c(=O)c2c(nc(Cc3ccccc3)n2Cc2nnc(-c3ccc(Cl)c(Cl)c3)o2)n(C)c1=O` [Example 63, 8-benzyl-7-{[5-(3,4-dichlorophenyl)-1,3,4-oxadiazol-2-yl]methyl}-1,3-dimethyl-2,3,6,7-tetrahydro-1H-purine-2,6-dione], with above 1000 nM.
Still for that read-out and setting: then `Cc1cccc(-c2nnc(Cn3c(N4CCN(C)CC4)nc4c3c(=O)n(C)c(=O)n4C)o2)c1` [Example 51, 1,3-dimethyl-7-{[5-(3-methylphenyl)-1,3,4-oxadiazol-2-yl]methyl}-8-(4-methylpiperazin-1-yl)-2,3,6,7-tetrahydro-1H-purine-2,6-dione], with 31.3 nM.
Consider `COc1cc(-c2nnc(Cn3c(NCC4CCN(C(=N)N)CC4)nc4c3c(=O)n(C)c(=O)n4C)o2)ccc1C` [Example 128, 4-{[(7-{[5-(3-methoxy-4-methylphenyl)-1,3,4-oxadiazol-2-yl]methyl}-1,3-dimethyl-2,6-dioxo-2,3,6,7-tetrahydro-1H-purin-8-yl)amino]methyl}piperidine-1-carboximidamide], for which the IC50 (Table 4) amounted to 128 nM.
Same read-out and setting: then `COc1cccc(-c2nnc(Cn3c(N4CCNCC4)nc4c3c(=O)n(C)c(=O)n4C)o2)c1` [Example 111, 7-{[5-(3-methoxyphenyl)-1,3,4-oxadiazol-2-yl]methyl}-1,3-dimethyl-8-(piperazin-1-yl)-2,3,6,7-tetrahydro-1H-purine-2,6-dione], with 119 nM; and `COc1cc(-c2nnc(Cn3c(N4CCNCC4)nc4c3c(=O)n(C)c(=O)n4C)o2)ccc1C` [Example 119, 7-{[5-(3-methoxy-4-methylphenyl)-1,3,4-oxadiazol-2-yl]methyl}-1,3-dimethyl-8-(piperazin-1-yl)-2,3,6,7-tetrahydro-1H-purine-2,6-dione], with 35.7 nM.
For `Cn1c(=O)c2c(nc(N3CCNCC3)n2Cc2nnc(-c3cccnc3)o2)n(C)c1=O` [Example 113, 1,3-dimethyl-8-(piperazin-1-yl)-7-{[5-(pyridin-3-yl)-1,3,4-oxadiazol-2-yl]methyl}-2,3,6,7-tetrahydro-1H-purine-2,6-dione], where the note is “Table 4”, the IC50 was found to be 1690 nM.
On the same count and under the same terms, then `Cn1c(=O)c2c(nc(Cl)n2Cc2cn(-c3ccc(Cl)c(Cl)c3)nn2)n(C)c1=O` [Example 143, 8-chloro-7-{[1-(3,4-dichlorophenyl)-1H-1,2,3-triazol-4-yl]methyl}-1,3-dimethyl-2,3,6,7-tetrahydro-1H-purine-2,6-dione], with 14000 nM; and `Cn1c(=O)c2c(nc(N)n2Cc2nnc(-c3ccc(Cl)c(Cl)c3)o2)n(C)c1=O` [Example 87, 8-amino-7-{[5-(3,4-dichlorophenyl)-1,3,4-oxadiazol-2-yl]methyl}-1,3-dimethyl-2,3,6,7-tetrahydro-1H-purine-2,6-dione], with 16.5 nM.
As for `CN1CCN(c2nc3c(c(=O)n(C)c(=O)n3C)n2Cc2nnc(-c3ccc(Cl)c(Cl)c3)o2)CC1` [Example 18, 7-{[5-(3,4-dichlorophenyl)-1,3,4-oxadiazol-2-yl]methyl}-1,3-dimethyl-8-(4-methylpiperazin-1-yl)-2,3,6,7-tetrahydro-1H-purine-2,6-dione], the IC50 (Table 3) stood at 151 nM.
Still for that read-out and setting: with `C[C@H]1CN(c2nc3c(c(=O)n(C)c(=O)n3C)n2Cc2nnc(-c3ccc(Cl)c(Cl)c3)o2)CCN1` [Example 46, 7-{[5-(3,4-dichlorophenyl)-1,3,4-oxadiazol-2-yl]methyl}-1,3-dimethyl-8-[(3S)-3-methylpiperazin-1-yl]-2,3,6,7-tetrahydro-1H-purine-2,6-dione] the figure was 12 nM.
`COc1cc(-c2nnc(Cn3c(SCCN)nc4c3c(=O)n(C)c(=O)n4C)o2)ccc1C` [Example 142, 8-[(2-aminoethyl)sulfanyl]-7-{[5-(3-methoxy-4-methylphenyl)-1,3,4-oxadiazol-2-yl]methyl}-1,3-dimethyl-2,3,6,7-tetrahydro-1H-purine-2,6-dione]: for the setting “Table 4”, the 50% inhibitory concentration (IC50) is 49.2 nM.
For `Cn1c(=O)c2c(nc(N3CCNC(=O)C3)n2Cc2nnc(-c3ccc(Cl)c(Cl)c3)o2)n(C)c1=O` [Example 83, 7-{[5-(3,4-dichlorophenyl)-1,3,4-oxadiazol-2-yl]methyl}-1,3-dimethyl-8-(3-oxopiperazin-1-yl)-2,3,6,7-tetrahydro-1H-purine-2,6-dione], the IC50 (Table 4) turned out to be 20.2 nM.
The same measure, in the same setting: with `Cn1c(=O)c2c(nc(N3CCNCC3)n2Cc2nc(-c3ccc(Cl)cc3)no2)n(C)c1=O` [Example 70, 7-{[3-(4-chlorophenyl)-1,2,4-oxadiazol-5-yl]methyl}-1,3-dimethyl-8-(piperazin-1-yl)-2,3,6,7-tetrahydro-1H-purine-2,6-dione] the figure was 57.4 nM.
